Data taken from the supplement of paper PMC10307832.

Legend:
Experiment in all cases: relative viability (nuclei count vs DMSO), 5 days (fraction); higher = more cells survive
R406 + Phenformin = compound: COc1cc(Nc2ncc(F)c(Nc3ccc4c(n3)NC(=O)C(C)(C)O4)n2)cc(OC)c1OC [R406] + N=C(N)NC(=N)NCCc1ccccc1 [Phenformin] (partner 250 µM)
How it was run: (§1)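 Lung cancer cell lines in 1536-well plates were dosed by pin tool the day after seeding, either with one drug alone or with a fixed anchor-drug dose plus five library-drug doses (not always all listed) in √10 steps. After 5 days, cells were fixed and their nuclei stained in one step (final 0.05% Triton X-100, 1% formaldehyde, 1 ug/ml Hoechst), then counted on 4× images. Relative viability is the nuclei count in treated wells divided by that in vehicle wells. Values are medians of duplicate plates.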

R406 + Alpelisib = compound: COc1cc(Nc2ncc(F)c(Nc3ccc4c(n3)NC(=O)C(C)(C)O4)n2)cc(OC)c1OC [R406] + Cc1nc(NC(=O)N2CCC[C@H]2C(N)=O)sc1-c1ccnc(C(C)(C)C(F)(F)F)c1 [Alpelisib] (partner 2 µM)
How it was run: as §1

Daporinad + Vorinostat = compound: O=C(/C=C/c1cccnc1)NCCCCC1CCN(C(=O)c2ccccc2)CC1 [Daporinad] + O=C(CCCCCCC(=O)Nc1ccccc1)NO [Vorinostat] (partner 1 µM)
How it was run: as §1

R406 + Trametinib = compound: COc1cc(Nc2ncc(F)c(Nc3ccc4c(n3)NC(=O)C(C)(C)O4)n2)cc(OC)c1OC [R406] + CC(=O)Nc1cccc(-n2c(=O)n(C3CC3)c(=O)c3c(Nc4ccc(I)cc4F)n(C)c(=O)c(C)c32)c1 [Trametinib] (partner 0.02 µM)
How it was run: as §1

Row | Cell Line | relative viability (R406 + Phenformin; first compound 0.08 µM) | relative viability (R406 + Phenformin; first compound 0.253 µM) | relative viability (R406 + Phenformin; first compound 0.8 µM) | relative viability (R406 + Phenformin; first compound 2.53 µM) | relative viability (R406 + Phenformin; first compound 8 µM) | relative viability (R406 + Alpelisib; first compound 0.08 µM) | relative viability (R406 + Alpelisib; first compound 0.253 µM) | relative viability (R406 + Alpelisib; first compound 0.8 µM) | relative viability (R406 + Alpelisib; first compound 2.53 µM) | relative viability (R406 + Alpelisib; first compound 8 µM) | relative viability (Daporinad + Vorinostat; first compound 0.0005 µM) | relative viability (Daporinad + Vorinostat; first compound 0.001581 µM) | relative viability (Daporinad + Vorinostat; first compound 0.005 µM) | relative viability (Daporinad + Vorinostat; first compound 0.01581 µM) | relative viability (R406 + Trametinib; first compound 0.08 µM) | relative viability (R406 + Trametinib; first compound 0.253 µM) | relative viability (R406 + Trametinib; first compound 0.8 µM) | relative viability (R406 + Trametinib; first compound 2.53 µM) | relative viability (R406 + Trametinib; first compound 8 µM)
1 | 201T | 0.416 | 0.483 | 0.431 | 0.367 | 0.351 | 1.03 | 1.02 | 1.04 | 0.979 | 0.86 | 0.965 | 1.08 | 1.05 | 1.04 | 0.696 | 0.72 | 0.726 | 0.674 | 0.679
2 | A549 | 0.142 | 0.21 | 0.122 | 0.155 | 0.0767 | 0.703 | 0.932 | 0.811 | 0.646 | 0.164 | – | – | – | – | – | – | – | – | –
3 | A-427 | 0.382 | 0.335 | 0.316 | 0.171 | 0.134 | 1.14 | 1.17 | 1.12 | 0.928 | 0.843 | 0.838 | 0.886 | 0.793 | 0.659 | 0.755 | 0.745 | 0.857 | 0.62 | 0.541
4 | ABC-1 | 0.227 | 0.225 | 0.236 | 0.197 | 0.201 | 1.3 | 0.963 | 1.29 | 0.821 | 0.518 | 0.809 | 1.51 | 1.46 | 0.9 | – | – | – | – | –
5 | BEN | 0.267 | 0.283 | 0.256 | 0.26 | 0.249 | 1.08 | 1.3 | 1.07 | 0.99 | 0.766 | 0.554 | 0.661 | 0.679 | 0.63 | 0.974 | 0.992 | 1.24 | 1.17 | 0.897
6 | CAL-12T | 0.57 | 0.667 | 0.668 | 0.353 | 0.14 | 1.3 | 1.54 | 1.83 | 1.03 | 0.923 | 0.659 | 0.799 | 0.402 | 0.217 | 0.343 | 0.351 | 0.378 | 0.312 | 0.175
7 | COR-L23 | 0.416 | 0.456 | 0.501 | 0.379 | 0.261 | 0.725 | 0.947 | 0.828 | 0.553 | 0.388 | 0.427 | 0.345 | 0.408 | 0.161 | 0.627 | 0.669 | 0.682 | 0.217 | 0.338
8 | COR-L 105 | 0.495 | 0.569 | 0.602 | 0.366 | 0.224 | 1.26 | 1.01 | 1.4 | 0.757 | 0.641 | 0.775 | 0.705 | 0.861 | 0.851 | 0.444 | 0.497 | 0.432 | 0.459 | 0.395
9 | Calu-6 | – | – | – | – | – | 1.01 | 1.14 | 1.13 | 0.66 | 0.389 | – | – | – | – | – | – | – | – | –
10 | ChaGo-K-1 | 0.491 | 0.508 | 0.657 | 0.42 | 0.403 | – | – | – | – | – | 0.832 | 0.743 | 0.677 | 0.283 | 0.853 | 0.962 | 0.982 | 0.844 | 0.763
11 | EBC-1 | – | – | – | – | – | 0.826 | 0.969 | 1.03 | 0.606 | 0.386 | – | – | – | – | – | – | – | – | –
12 | EKVX | 0.23 | 0.254 | 0.245 | 0.208 | 0.178 | 0.928 | 0.992 | 1.06 | 0.77 | 0.635 | 0.621 | 0.825 | 0.841 | 0.851 | 0.405 | 0.383 | 0.348 | 0.364 | 0.264
13 | EMC-BAC-2 | 0.516 | 0.587 | 0.616 | 0.388 | 0.198 | 0.773 | 0.786 | 0.801 | 0.628 | 0.384 | 0.319 | 0.567 | 0.421 | 0.301 | 0.907 | 0.956 | 0.804 | 1.06 | 0.917
14 | EPLC-272H | 0.278 | 0.371 | 0.333 | 0.25 | 0.207 | 0.989 | 1.2 | 0.969 | 0.607 | 0.567 | 0.408 | 0.531 | 0.401 | 0.294 | 0.324 | 0.333 | 0.305 | 0.166 | 0.21
15 | H3255 | 0.366 | – | 0.352 | 0.369 | 0.311 | 0.693 | 0.746 | 0.623 | 0.511 | 0.418 | 0.668 | 0.591 | 0.775 | 0.979 | 0.549 | 0.693 | 0.563 | 0.577 | 0.487
16 | HARA | 0.386 | 0.508 | 0.548 | 0.377 | 0.324 | 0.801 | 0.721 | 0.879 | 0.637 | 0.249 | 0.39 | 0.527 | 0.518 | 0.663 | 0.745 | 0.629 | 0.878 | 0.794 | 0.13
17 | HCC-15 | 0.467 | 0.606 | 0.595 | 0.445 | 0.234 | 0.859 | 0.887 | 0.981 | – | 0.753 | 0.782 | 0.959 | 0.889 | 0.911 | 0.392 | 0.385 | 0.406 | 0.415 | 0.331
18 | HCC-44 | 0.15 | 0.22 | 0.196 | 0.18 | 0.127 | 0.787 | 1 | 0.883 | 0.739 | 0.262 | 0.928 | 1.18 | 1.19 | 1.03 | 1.04 | 1.1 | 1.12 | 0.984 | 0.966
19 | HCC-78 | 0.544 | 0.751 | 0.842 | 0.611 | 0.392 | 0.313 | 0.33 | 0.377 | 0.295 | 0.214 | 0.368 | 0.414 | 0.345 | 0.5 | 0.757 | 0.687 | 0.749 | 0.504 | 0.424
